{"source": "paper PMC5686165", "about": "“Plant-to-plant communication triggered by systemin primes anti-herbivore resistance in tomato” (Scientific Reports, 2017)", "origin": "cited, not measured here", "tested_on": "A. ervi", "settings": "tomato and A. ervi", "method": "The possible biological relevance of the systemin-triggered priming was evaluated using three different types of source plants. […] The qualitative and quantitative differences in VOCs emissions were confirmed by PLSDA analysis and explain the effect on parasitoid attraction. Compared to R-S4, all receiver plants, after 24 hours of exposition to the t ..."}
{"smiles": "C=C(C)CC(C)CCC", "note": "(stereo not shown) [2,4-dimethyl-1-heptene]", "values": [{"measurement": "elicitation of indirect defense in inter-specific plant-to-plant communication", "result": "powerful elicitor of indirect defense"}]}
